{"source": "patent US20230293539A1", "about": "“MLL1-WDR5 PROTEIN-PROTEIN INTERACTION INHIBITOR COMPOUNDS AND USES THEREOF” (HUYABIO International, LLC, priority 2022, published 2023)", "key": {"MV 411 cells": {"tested_on": "MV 411 cells", "experiment": "Cell Viability Assay (CellTiter-Glo)", "format": "cell-based", "conditions": "Homo sapiens, MV4-11, 72 hours, read-out: IC50 (anti-proliferative activity against leukemia cells)", "description": "Cell lines and maintenance: All cell lines (MV 411) used for in vitro and in vivo studies were supplied as part of Wuxi AppTech cell bank. Cell lines were maintained in a medium supplemented with 10% heat inactivated fetal bovine serum at 37° C., in an atmosphere of 5% CO2, in air. The tumor cells were routinely subcultured twice weekly. The cells growing in an exponential growth phase were used for the in vitro cell potency and in vivo efficacy studies.\nEXAMPLE 1: Cell Viability Assay: For cell cytotoxicity assays, 2000 cells/well were plated in 384-well plates. Twenty four hours after plating, cells were treated with inhibitors at the indicated compound concentrations. On Day 3 (72 hours), cells were lysed with CellTiter-Glo® Luminescent Cell Viability Assay reagent (Promega) and luminescence was read using the EnVision Multi-plate reader. To calculate IC50, a dose-response curve is generated using a nonlinear regression model with a sigmoidal dose response. The formula of surviving rate is shown below. IC50 values were automatically generated by GraphPad Prism 8.0. See FIG. 1A and FIG. 1B and Tables 3 and 4."}, "WDR5": {"target": "WDR5 (Homo sapiens, UniProt P61964)", "experiment": "WDR5 TR-FRET Assay", "format": "binding", "conditions": "5 nM WDR5 protein, 10 nM peptide, read-out: IC50 (MLL1-WDR5 PPI inhibitory activity)", "description": "WDR5 TR-FRET Assay Procedure: Stock compounds were transferred to the assay plate by Echo Liquid Handler. Reactions were performed in the assay buffer (1×PBS, 300 mM NaCl, 0.5 mM TCEP, 0.1% CHAPS) containing 5 nM WDR5 protein, 10 nM peptide (Ac-ARTEVHLRKS-[Ahx-Ahx][C]-Alexa Fluor 488-NH2) and 0.25 nM Tb-anti His antibody (Tb-Ab) in 384-well white plate (PerkinElmer) with a final volume of 20 μl. Compounds were incubated with WDR5 protein for 30 min at room temperature. Plates were covered, protected from light and incubated for 60 min. at room temperature after adding the peptide and Tb-Ab. EnVision Multimode Plate Reader (PerkinElmer) was used for the TR-FRET assay with excitation wavelength at 340 nm and emission wavelength at 495 and 520 nm. The ratio of the 520/495 nm wavelengths were used to assess the degree of the FRET signal. IC50 was calculated by fitting the inhibition data using XLfit software to sigmoidal dose-response model."}, "[1]": {"experiment": "Compound formulation stability assay", "format": "physicochemical", "conditions": "10 mg/mL in 10% DMSO/10% solutol HS 15/80% water, 2-8° C.", "description": "Compound formulation stability assay: Test articles were formulated in 10% DMSO/10% solutol HS 15/80% water and stored at 4° C. Formulated compounds were analyzed by a HPLC-UV method for actual concentrations and % remaining on Day 1, 4 and 7 after formulation to determine the stability of the formulated test article. The HPLC system was equipped with Shimadzu LC-20 high-performance liquid chromatograph, SIL-20AC auto sampler, LC-20AB pump and SPD-M20A detector. A Waters XBridge C18 (4.6*100 mm) column was applied for the separation. […]"}, "Mouse PK (oral)": {"experiment": "Mouse PK (oral)", "format": "in vivo, C57/B16 mice", "conditions": "for Cmax: plasma; for AUC(0-t) / half-life: C57/B16, plasma", "description": "Mouse PK: Animals were dosed with a single intravenous bolus or oral gavage administration in naïve C57/B16 mice (Beijing Vital River Laboratory Animal Co., LTD). Blood samples were collected at the respective sampling time points. The quantification of compound concentrations in mouse or rat plasma was quantified using LC-MS/MS method. Plasma concentration versus time data was analyzed by non-compartmental mode approaches using the WinNonlin software program (version 6.3 or above, Pharsight). Pharmacokinetic parameters, including C0 (initial concentration after drug administration), […], Vdss (volume of distribution), Cmax (maximum peak concentration of the drug), Tmax (time required to reach Cmax) T1/2 (time required for drug concentration to decrease by 50% after administration), AUC0-last (area under the concentration-time curve from dosing time t=0 to the time of the last measured concentration), AUC0-inf (total drug exposure across time), MRT0-last (mean residence time from dosing time t=0 to the time of the last measured concentration), MRT0-inf f (mean residence time of total drug exposure), bioavailability (%) (the percentage (or the fraction F) of an administered drug dose that reaches the systemic circulation) for IV and PO groups were calculated. See Table 7 and FIGS. 6A, 6B, 6C and 6D."}, "Liver S9 stability assay [2]": {"experiment": "Liver S9 stability assay", "format": "in vitro ADME, human", "description": "(§1) Liver S9 stability assay: Test compounds (1 μM) and positive control were incubated with 5 mM GSH and liver S9 (1 mg protein/ml) from multiple species (including human, monkey, dog, rat and mouse) at 37° C. at 0, 10, 30, and 60 minutes in duplicate. After adding the stop solution, 100 μL of supernatant were analyzed by LC-MS/MS. The % remaining of test compound, T1/2 (min), and CLint (μL/min/mg) were calculated and were reported."}, "Liver S9 stability assay [3]": {"experiment": "Liver S9 stability assay", "format": "in vitro ADME, rat", "description": "as §1"}, "Liver S9 stability assay [4]": {"experiment": "Liver S9 stability assay", "format": "in vitro ADME, dog", "description": "as §1"}, "Liver S9 stability assay [5]": {"experiment": "Liver S9 stability assay", "format": "in vitro ADME, mouse", "description": "as §1"}, "[6]": {"experiment": "WBS (whole blood stability) assay", "format": "in vitro ADME", "conditions": "for % Remaining after 60 min incubation: 2 μM, 37° C.", "description": "WBS (whole blood stability) assay: The blood samples were collected freshly from multiple species including human, monkey, dog, rat and mouse. 2 μM of test compound and positive control were incubated with the whole blood at 37° C. at 0, 10, 30, 60, and 120 minutes in duplicate. After adding the stop solution, 200 μL of supernatant were analyzed by LC-MS/MS. The % remaining of test compound and T1/2 (min) were calculated and reported."}}, "data": [{"smiles": "CCN(CC)C(=O)c1cn(-c2cc(NC(=O)c3cc(N)c(F)c(C)c3Cl)c(N3C[C@@H](C)N(C)[C@@H](C)C3)cc2F)nn1", "note": "[HYBI-082, 1-(5-(5-amino-2-chloro-4-fluoro-3-methylbenzamido)-2-fluoro-4-((3S,5R)-3,4,5-trimethylpiperazin-1-yl)phenyl)-N,N-diethyl-1H-1,2,3-triazole-4-carboxamide]", "values": [{"measurement": "IC50", "setting": "MV 411 cells", "result": 7.68, "unit": "µM"}, {"measurement": "IC50", "setting": "WDR5", "result": 0.00532, "unit": "µM"}, {"measurement": "Accuracy % (Day 0)", "setting": "[1]; Day 0", "result": 96.3, "unit": "%"}, {"measurement": "Formulation Appearance (Day 0)", "setting": "[1]; Day 0", "result": "clear"}, {"measurement": "Remaining % (Day 0)", "setting": "[1]; Day 0", "result": 100, "unit": "%"}, {"measurement": "Accuracy % (Day 1)", "setting": "[1]; Day 1", "result": 96.0, "unit": "%"}, {"measurement": "Formulation Appearance (Day 1)", "setting": "[1]; Day 1", "result": "clear"}, {"measurement": "Remaining % (Day 1)", "setting": "[1]; Day 1", "result": 100, "unit": "%"}, {"measurement": "Accuracy % (Day 4)", "setting": "[1]; Day 4", "result": 99.3, "unit": "%"}, {"measurement": "Formulation Appearance (Day 4)", "setting": "[1]; Day 4", "result": "clear"}, {"measurement": "Remaining % (Day 4)", "setting": "[1]; Day 4", "result": 103, "unit": "%"}, {"measurement": "Accuracy % (Day 7)", "setting": "[1]; Day 7", "result": 98.6, "unit": "%"}, {"measurement": "Formulation Appearance (Day 7)", "setting": "[1]; Day 7", "result": "clear"}, {"measurement": "Remaining % (Day 7)", "setting": "[1]; Day 7", "result": 102, "unit": "%"}, {"measurement": "F", "setting": "Mouse PK (oral); 10 mpk", "result": 23.3, "unit": "%"}, {"measurement": "F", "setting": "Mouse PK (oral); 30 mpk", "result": 27.5, "unit": "%"}, {"measurement": "Cmax", "setting": "Mouse PK (oral); C57/B16, 10 mg/kg, 10 mpk", "result": 1.67, "unit": "µM"}, {"measurement": "Cmax", "setting": "Mouse PK (oral); C57/B16, 30 mg/kg, 30 mpk", "result": 4.53, "unit": "µM"}, {"measurement": "AUC(0-t)", "setting": "Mouse PK (oral); 10 mg/kg, 10 mpk", "result": 2.22, "unit": "µM·h"}, {"measurement": "half-life", "setting": "Mouse PK (oral); 10 mg/kg, 10 mpk", "result": 0.8, "unit": "h"}, {"measurement": "AUC(0-t)", "setting": "Mouse PK (oral); 30 mg/kg, 30 mpk", "result": 7.61, "unit": "µM·h"}, {"measurement": "half-life", "setting": "Mouse PK (oral); 30 mg/kg, 30 mpk", "result": 2, "unit": "h"}, {"measurement": "half-life at 1 μM", "setting": "Liver S9 stability assay [2]; Human liver S9", "result": "> 2.42", "unit": "h"}, {"measurement": "microsomal CLint at 1 μM", "setting": "Liver S9 stability assay [2]; Human liver S9", "result": "< 4.8", "unit": "µL/min/mg"}, {"measurement": "% Remaining after 60 min incubation", "setting": "Liver S9 stability assay [2]; Human liver S9, 1 μM, 5 mM GSH, 37° C.", "result": 107, "unit": "%"}, {"measurement": "half-life at 1 μM", "setting": "Liver S9 stability assay [3]; Rat liver S9", "result": "> 2.42", "unit": "h"}, {"measurement": "microsomal CLint at 1 μM", "setting": "Liver S9 stability assay [3]; Rat liver S9", "result": "< 4.8", "unit": "µL/min/mg"}, {"measurement": "% Remaining after 60 min incubation", "setting": "Liver S9 stability assay [3]; Rat liver S9, 1 μM, 5 mM GSH, 37° C.", "result": 98.3, "unit": "%"}, {"measurement": "half-life at 1 μM", "setting": "Liver S9 stability assay [4]; Dog liver S9", "result": "> 2.42", "unit": "h"}, {"measurement": "microsomal CLint at 1 μM", "setting": "Liver S9 stability assay [4]; Dog liver S9", "result": "< 4.8", "unit": "µL/min/mg"}, {"measurement": "% Remaining after 60 min incubation", "setting": "Liver S9 stability assay [4]; Dog liver S9, 1 μM, 5 mM GSH, 37° C.", "result": 87.3, "unit": "%"}, {"measurement": "half-life at 1 μM", "setting": "Liver S9 stability assay [5]; Mouse liver S9", "result": "> 2.42", "unit": "h"}, {"measurement": "microsomal CLint at 1 μM", "setting": "Liver S9 stability assay [5]; Mouse liver S9", "result": "< 4.8", "unit": "µL/min/mg"}, {"measurement": "% Remaining after 60 min incubation", "setting": "Liver S9 stability assay [5]; Mouse liver S9, 1 μM, 5 mM GSH, 37° C.", "result": 87.7, "unit": "%"}, {"measurement": "half-life at 2 μM", "setting": "[6]; Dog whole blood", "result": "> 2.41", "unit": "h"}, {"measurement": "% Remaining after 60 min incubation", "setting": "[6]; Dog whole blood", "result": 90.6, "unit": "%"}, {"measurement": "half-life at 2 μM", "setting": "[6]; Human whole blood", "result": 11.9, "unit": "h"}, {"measurement": "% Remaining after 60 min incubation", "setting": "[6]; Human whole blood", "result": 100, "unit": "%"}, {"measurement": "half-life at 2 μM", "setting": "[6]; Mouse whole blood", "result": "> 2.41", "unit": "h"}, {"measurement": "% Remaining after 60 min incubation", "setting": "[6]; Mouse whole blood", "result": 82.4, "unit": "%"}, {"measurement": "half-life at 2 μM", "setting": "[6]; Rat whole blood", "result": "> 2.41", "unit": "h"}, {"measurement": "% Remaining after 60 min incubation", "setting": "[6]; Rat whole blood", "result": 99.6, "unit": "%"}]}]}
